Experimental data: patent US6323001A, “Increasing the trehalose content of organisms by transforming them with combinations of the structural genes for trehalose synthase” (BTG International Ltd., priority 1994, dated 2001)
Read-outs that look alike come from different tables or passages of the source.

Tests used:
[1] = biological target: T1, Tre6P synthase activity of intact trehalose synthase (Saccharomyces cerevisiae, UniProt Q00764); experiment: Tre6P synthase assay of intact trehalose synthase; format: biochemical, baker's yeast; settings: 5 or 2.5 mM; 1 mM F6P at 1.3 mM phosphate
T1 construct: Intact trehalose synthase was purified from commercial baker's yeast; made in house; host or cells: commercial baker's yeast (native enzyme purified, not recombinant)
T1 sequence (P31688 whole entry, one chain of several): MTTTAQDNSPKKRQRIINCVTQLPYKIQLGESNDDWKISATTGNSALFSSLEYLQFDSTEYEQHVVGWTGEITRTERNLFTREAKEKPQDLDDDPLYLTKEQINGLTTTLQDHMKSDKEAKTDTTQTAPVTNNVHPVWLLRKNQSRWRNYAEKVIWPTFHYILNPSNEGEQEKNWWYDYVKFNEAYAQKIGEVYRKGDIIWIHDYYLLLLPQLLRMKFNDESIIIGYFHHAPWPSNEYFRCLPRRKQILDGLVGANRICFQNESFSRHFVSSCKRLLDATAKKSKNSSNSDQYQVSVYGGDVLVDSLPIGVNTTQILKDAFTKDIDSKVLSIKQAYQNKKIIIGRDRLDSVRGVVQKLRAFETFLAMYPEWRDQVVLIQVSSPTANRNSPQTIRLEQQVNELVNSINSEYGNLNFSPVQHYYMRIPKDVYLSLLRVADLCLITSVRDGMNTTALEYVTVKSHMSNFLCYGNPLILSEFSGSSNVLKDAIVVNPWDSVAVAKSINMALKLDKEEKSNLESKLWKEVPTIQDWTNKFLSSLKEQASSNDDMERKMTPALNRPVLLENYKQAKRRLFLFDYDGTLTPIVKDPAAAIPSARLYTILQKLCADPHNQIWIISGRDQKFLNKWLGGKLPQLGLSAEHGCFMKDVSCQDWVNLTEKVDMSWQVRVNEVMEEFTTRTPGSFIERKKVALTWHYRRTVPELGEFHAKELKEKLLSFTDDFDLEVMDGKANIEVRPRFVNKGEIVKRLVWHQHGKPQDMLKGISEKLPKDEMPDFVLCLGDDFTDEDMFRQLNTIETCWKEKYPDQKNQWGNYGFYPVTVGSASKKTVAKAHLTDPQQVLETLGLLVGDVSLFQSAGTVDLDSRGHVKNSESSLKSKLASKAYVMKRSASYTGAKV
T1 sequence (P38427 whole entry, one chain of several, further chain): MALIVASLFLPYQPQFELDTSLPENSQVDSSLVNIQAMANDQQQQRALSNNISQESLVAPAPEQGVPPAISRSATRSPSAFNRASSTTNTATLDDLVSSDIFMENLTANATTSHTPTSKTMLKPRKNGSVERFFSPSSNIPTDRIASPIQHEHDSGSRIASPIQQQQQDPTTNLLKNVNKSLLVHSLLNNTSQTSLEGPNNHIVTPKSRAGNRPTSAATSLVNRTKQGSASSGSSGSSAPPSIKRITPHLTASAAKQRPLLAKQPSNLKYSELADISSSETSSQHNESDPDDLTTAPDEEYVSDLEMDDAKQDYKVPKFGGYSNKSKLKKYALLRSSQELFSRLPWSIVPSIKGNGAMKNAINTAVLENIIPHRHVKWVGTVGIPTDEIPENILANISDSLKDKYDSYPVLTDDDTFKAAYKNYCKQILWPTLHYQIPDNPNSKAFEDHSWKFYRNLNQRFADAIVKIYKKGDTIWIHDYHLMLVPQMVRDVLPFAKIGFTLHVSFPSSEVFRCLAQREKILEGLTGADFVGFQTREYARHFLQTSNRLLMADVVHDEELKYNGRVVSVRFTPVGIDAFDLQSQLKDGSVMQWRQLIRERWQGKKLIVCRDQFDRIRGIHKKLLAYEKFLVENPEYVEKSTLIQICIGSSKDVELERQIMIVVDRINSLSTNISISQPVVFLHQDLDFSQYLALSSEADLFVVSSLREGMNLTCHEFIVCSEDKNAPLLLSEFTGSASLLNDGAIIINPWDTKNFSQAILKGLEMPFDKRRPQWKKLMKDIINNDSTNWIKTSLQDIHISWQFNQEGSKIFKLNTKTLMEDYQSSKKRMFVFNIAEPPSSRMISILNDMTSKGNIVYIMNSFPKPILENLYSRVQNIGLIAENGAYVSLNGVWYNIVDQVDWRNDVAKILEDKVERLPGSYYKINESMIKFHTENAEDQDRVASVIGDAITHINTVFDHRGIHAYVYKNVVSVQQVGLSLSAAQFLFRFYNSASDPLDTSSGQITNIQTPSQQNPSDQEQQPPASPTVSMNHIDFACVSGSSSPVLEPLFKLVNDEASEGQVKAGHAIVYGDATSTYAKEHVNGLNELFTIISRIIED
Description: (§1) With microbial materials, Tre6Pase and Tre6P synthase standard assays and other kinetic measurements were made as described by Londesborough & Vuorio [(1991) loc. cit.] except that the standard Tre6P synthase assay mixture contained 5 mM F6P unless stated otherwise.
Removal of the N-terminal 325 or so amino acids from the 123 kDa long chain of intact trehalose synthase by treatment with trypsin in vitro produces an enzyme with catalytic properties like those of the truncated enzyme purified by Londesborough & Vuorio [(1991) loc. cit.]. In one experiment intact trehalose synthase (0.28 Tre6P synthase units, ≈9.4 μg) was incubated with or without 0.5 μg of trypsin at 30° C. in 250 μl of 13 mM HEPES pH 7.0 containing 1 mM MgCl2, 0.5 mM EDTA, 0.5 mM dithiothreitol, 0.2 M NaCl and 0.5 mM benzamidine. Its Tre6P synthase activity was determined at intervals using standard assay mixtures (containing 5 mM F6P) containing no or 4 mM K phosphate pH 6.8, and samples were prepared for SDS-PAGE analysis immediately before and 48 min after addition of the trypsin.
(§2) Truncated trehalose synthase was prepared as described by Londesborough & Vuorio [(1991) loc. cit.] and contained the 57 kDa short chain and 86 and 93 kDa fragments of the long chain. Intact trehalose synthase was prepared as in Example 1. Kinetic assays were done at 30° C. as described in General Methods and Materials.

extract of X2180 yeast = experiment: Synthesis of [14C]-trehalose from [U-14C]-G6P by extract of wild-type yeast; format: biochemical, S. cerevisiae; settings: 2.5 mM ADPG
[2] = biological target: Tre6Pase activity of truncated trehalose synthase (Saccharomyces cerevisiae, UniProt P31688); experiment: Tre6Pase assay of truncated trehalose synthase; format: biochemical, baker's yeast
Chain of Tre6Pase activity of truncated trehalose synthase (P31688 whole entry, one chain of several, the tested form may be a part): as the sequence (P31688 whole entry, one chain of several) above
Chain of Tre6Pase activity of truncated trehalose synthase (P38427 336-1098, one chain of several, further chain): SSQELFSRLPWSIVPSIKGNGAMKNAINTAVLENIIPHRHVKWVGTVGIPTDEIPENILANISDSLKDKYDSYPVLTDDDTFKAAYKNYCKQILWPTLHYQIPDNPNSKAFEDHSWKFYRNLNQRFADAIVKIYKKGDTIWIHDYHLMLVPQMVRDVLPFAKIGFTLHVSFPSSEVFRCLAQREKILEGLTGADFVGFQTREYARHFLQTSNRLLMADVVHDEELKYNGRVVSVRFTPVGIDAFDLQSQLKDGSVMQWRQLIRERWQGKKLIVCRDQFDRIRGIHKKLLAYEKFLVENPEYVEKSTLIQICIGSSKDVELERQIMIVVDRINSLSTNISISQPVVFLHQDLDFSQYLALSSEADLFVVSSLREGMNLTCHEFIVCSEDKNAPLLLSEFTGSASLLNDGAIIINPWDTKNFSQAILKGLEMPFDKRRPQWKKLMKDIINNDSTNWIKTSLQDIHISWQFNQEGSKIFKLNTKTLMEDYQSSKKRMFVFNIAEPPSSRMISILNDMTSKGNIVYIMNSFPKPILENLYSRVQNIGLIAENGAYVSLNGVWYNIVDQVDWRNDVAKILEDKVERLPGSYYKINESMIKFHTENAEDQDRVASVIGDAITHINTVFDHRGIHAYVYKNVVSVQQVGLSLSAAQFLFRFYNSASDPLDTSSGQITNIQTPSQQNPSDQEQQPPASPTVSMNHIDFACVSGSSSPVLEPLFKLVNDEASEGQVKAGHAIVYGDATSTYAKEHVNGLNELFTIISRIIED
Description: as §1
(§3) Truncated trehalose synthase containing the short (57 kDa) chain and the 86 and 93 kDa long chain fragments was prepared according to the method of Londesborough & Vuorio (1991) loc. cit.] for proteolytically activated TPS/P complex. Tre6P synthase and Tre6Pase activities were assayed as described by Londesborough & Vuorio [(1991) loc. cit.]. [N-ethyl-1-^14C]-maleimide (ethyl-labelled NEM; 40 mCi/mmol) was NEC-454 from New England Nuclear. N-ethyl-[2,3-^14 C]-maleimide (ring-labelled NEM; 6 mCi/mmol) was CFA 293 from Amersham International. Both were obtained as solutions in n-pentane and the manufacturer's stated specific activities were assumed to be correct. Unlabelled N-ethyl-maleimide (NEM) was E-3876 from Sigma. It was dissolved in 25 mM HEPES pH 7.0 immediately before use and standardized by absorption measurements at 305 nm, assuming an E^mM of 0.62.
(§4) In one experiment, 2.0 μl of 2.4 mM ethyl-labelled NEM was mixed with 150 μl of gel-filtered enzyme and incubated at 23° C. Samples (10 μl) taken at various times up to 190 min were mixed with 60 μl of Laemmli sample buffer (the mercapto-ethanol in this buffer should destroy residual NEM), boiled for 5 min and subjected to SDS-PAGE. At closely similar times (and also at 23 h) other samples (10 μl) were mixed with 100 μl (for Tre6P synthase) or 700 μl (for Tre6Pase) of 5 mg BSA/ml 25 mM HEPES pH 7.0 containing 2 mM MgCl2, 1 mM EDTA, 0.2 M NaCl and 1 mM dithiothreitol (the dithiothreitol should destroy residual NEM) and assayed for Tre6P synthase and Tre6Pase.
as §2

[3] = biological target: T2, Tre6P synthase activity of truncated trehalose synthase (Saccharomyces cerevisiae, UniProt Q00764); experiment: Tre6P synthase assay of truncated trehalose synthase; format: biochemical, baker's yeast
T2 construct: contained the 57 kDa short chain; made in house; host or cells: baker's yeast (native enzyme, proteolytically truncated during purification)
T2 sequence (Q00764 1-495): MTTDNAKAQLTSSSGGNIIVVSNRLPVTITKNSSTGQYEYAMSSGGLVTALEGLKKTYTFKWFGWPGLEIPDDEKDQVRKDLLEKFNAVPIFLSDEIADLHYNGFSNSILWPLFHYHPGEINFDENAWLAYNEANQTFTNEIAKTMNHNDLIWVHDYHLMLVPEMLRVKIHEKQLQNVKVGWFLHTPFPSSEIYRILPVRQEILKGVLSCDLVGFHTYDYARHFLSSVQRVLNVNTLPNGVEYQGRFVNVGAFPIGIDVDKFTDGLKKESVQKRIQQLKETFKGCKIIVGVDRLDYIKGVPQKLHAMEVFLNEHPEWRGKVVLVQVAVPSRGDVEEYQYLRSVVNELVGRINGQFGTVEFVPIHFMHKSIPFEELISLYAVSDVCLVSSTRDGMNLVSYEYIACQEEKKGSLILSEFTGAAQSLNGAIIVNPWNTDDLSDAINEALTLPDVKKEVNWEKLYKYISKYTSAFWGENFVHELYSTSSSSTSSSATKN
Description: as §1, §3, §2

[4] = biological target: T3, 93 and 86 kDa long chain fragments of truncated trehalose synthase (Saccharomyces cerevisiae, UniProt P38427); experiment: Labelling of truncated trehalose synthase with [14C]-NEM; format: binding, baker's yeast; settings: for NEM entered the long chain fragments: 32 μM ethyl-labelled NEM; for NEM incorporated into long chain fragments at complete loss of Tre6Pase: per mole of truncated trehalose synthase, ring- and ethyl-labelled NEM
T3 construct: 93 kDa band may also hold TPS2 fragment
T3 sequence (P38427 336-1098): as the sequence (P38427 336-1098, one chain of several, further chain) above
Description: as §4
After electrophoresis, the upper (cathode) buffer, containing most of the added radioactivity, was completely removed before disassembling the apparatus. The gel was then fixed, stained and destained as described by Laemmli [(1970) Nature, London 227, 680-685] and dried. […] The Coomassie blue stained bands and adjacent, empty areas (as blanks) were cut out of the dried gel (in later experiments, they were cut from undried gels), broken up and extracted overnight with 1 ml of 5% SDS in pre-blanked scintillation vials. Then 10 ml of a toluene/Triton X100-based scintillant was added, and the tubes were repeatedly counted using a wide energy window to minimise quench effects. After 10 h constant counting levels were reached. Excess radioactivity was calculated by subtracting a blank value obtained from empty regions of the gel.

SMILES: O=P(O)(O)O[C@H]1O[C@H](CO)[C@@H](O)[C@H](O)[C@H]1O [glucose-1-phosphate]
- inhibition of Tre6P synthase activity [1]: about 25%

SMILES: O=C(COP(=O)(O)O)[C@@H](O)[C@H](O)[C@H](O)COP(=O)(O)O [fructose-1,6-bisphosphate]
- inhibition of Tre6P synthase activity [1]: about 25%

SMILES: O=P(O)(O)OC[C@H]1O[C@@](CO)(OP(=O)(O)O)[C@@H](O)[C@@H]1O [fructose-2,6-bisphosphate]
- inhibition of Tre6P synthase activity [1]: about 25%

SMILES: O=C(COP(=O)(O)O)[C@@H](O)[C@H](O)[C@H](O)CO [Fructose-1-phosphate]
- inhibition of Tre6P synthase activity [1]: about 25%

SMILES: Nc1ncnc2c1ncn2[C@@H]1O[C@H](COP(=O)(O)OP(=O)(O)O[C@H]2O[C@H](CO)[C@@H](O)[C@H](O)[C@H]2O)[C@@H](O)[C@H]1O [ADPG, adenosine 5'-diphosphoglucose]
- effect on rate of appearance of radioactivity (extract of X2180 yeast): did not cause any significant increase

SMILES: O=C(O)c1cc(SSc2ccc([N+](=O)[O-])c(C(=O)O)c2)ccc1[N+](=O)[O-] [DTNB, dithiodinitro-benzoate]
- inhibition at 900 µM ([2]; 10 min, read-out: Tre6Pase lost, 0,9 mM DTNB, 10 min): > 95%
- inhibition at 900 µM ([3]; 10 min, 0,9 mM DTNB, 10 min, read-out: Tre6P synthase lost): < 28%

SMILES: CCN1C(=O)C=CC1=O [NEM, N-ethyl-maleimide]
- NEM entered the long chain fragments ([4]; 10.5 min): 0.20 moles per mole (150 Kg) of enz
- NEM entered the long chain fragments ([4]; 190 min): 0.32 moles per mole (150 Kg) of enz
- NEM incorporated into long chain fragments at complete loss of Tre6Pase [4]: less than 1 mole
- NEM incorporated into long chain fragments at complete loss of Tre6Pase ([4]; listed as 14C-N-ethylmaleimide): about 1 mole
- inhibition at 32 µM ([2]; 0.175 h, read-out: initial Tre6Pase lost, 32 μM ethyl-labelled NEM, 23° C., 10.5 min): 30%
- inhibition at 32 µM ([2]; 190 min, read-out: initial Tre6Pase lost, 32 μM ethyl-labelled NEM, 23° C., 190 min): 56%
- inhibition at 1900 µM ([2]; read-out: loss of Tre6Pase activity, 1.9 mM NEM, 24° C., about 0.17 mM dithiothreitol): ≥ 98%
- inhibition at 1900 µM ([3]; 1.9 mM NEM, 24° C., about 0.17 mM dithiothreitol, read-out: loss of Tre6P synthase activity): ≤ 24%
